# Results: ChEMBL document CHEMBL2163275, “The lipogenesis pathway as a cancer target” (J Med Chem, 2011)
# Experiments:
# Fatty acid synthase [1] = biological target: T1, Fatty acid synthase (Homo sapiens, UniProt P49327); assay: Inhibition of FASN in human SKBR3 cells; assay type: cell-based, SK-BR-3
# Fatty acid synthase [2] = biological target: T1, Fatty acid synthase; assay: Reversible inhibition of human recombinant FASN ketoreductase site
# Acetyl-CoA carboxylase 2 = Acetyl-CoA carboxylase 2 (Homo sapiens, UniProt O00763); assay: Inhibition of human ACC2 using acetyl coA as substrate and [14C]NaHCO3 incubated for 5 mins prior to substrate addition by liquid scintillation counting
# Acetyl-CoA carboxylase 1 = Acetyl-CoA carboxylase 1 (Homo sapiens, UniProt Q13085); assay: Inhibition of human ACC1 using acetyl coA as substrate and [14C]NaHCO3 incubated for 5 mins prior to substrate addition by liquid scintillation counting
# Fatty acid synthase [3] = biological target: T1, Fatty acid synthase; assay: Antagonist activity at recombinant FASN thioesterase domain by fluorogenic assay; assay type: functional
# ATP-citrate synthase [4] = biological target: T2, ATP-citrate synthase (Rattus norvegicus, UniProt P16638); assay: Competitive inhibition of rat liver ACLY using CoA as substrate by spectrophotometric analysis
# T2 sequence (P16638 whole entry): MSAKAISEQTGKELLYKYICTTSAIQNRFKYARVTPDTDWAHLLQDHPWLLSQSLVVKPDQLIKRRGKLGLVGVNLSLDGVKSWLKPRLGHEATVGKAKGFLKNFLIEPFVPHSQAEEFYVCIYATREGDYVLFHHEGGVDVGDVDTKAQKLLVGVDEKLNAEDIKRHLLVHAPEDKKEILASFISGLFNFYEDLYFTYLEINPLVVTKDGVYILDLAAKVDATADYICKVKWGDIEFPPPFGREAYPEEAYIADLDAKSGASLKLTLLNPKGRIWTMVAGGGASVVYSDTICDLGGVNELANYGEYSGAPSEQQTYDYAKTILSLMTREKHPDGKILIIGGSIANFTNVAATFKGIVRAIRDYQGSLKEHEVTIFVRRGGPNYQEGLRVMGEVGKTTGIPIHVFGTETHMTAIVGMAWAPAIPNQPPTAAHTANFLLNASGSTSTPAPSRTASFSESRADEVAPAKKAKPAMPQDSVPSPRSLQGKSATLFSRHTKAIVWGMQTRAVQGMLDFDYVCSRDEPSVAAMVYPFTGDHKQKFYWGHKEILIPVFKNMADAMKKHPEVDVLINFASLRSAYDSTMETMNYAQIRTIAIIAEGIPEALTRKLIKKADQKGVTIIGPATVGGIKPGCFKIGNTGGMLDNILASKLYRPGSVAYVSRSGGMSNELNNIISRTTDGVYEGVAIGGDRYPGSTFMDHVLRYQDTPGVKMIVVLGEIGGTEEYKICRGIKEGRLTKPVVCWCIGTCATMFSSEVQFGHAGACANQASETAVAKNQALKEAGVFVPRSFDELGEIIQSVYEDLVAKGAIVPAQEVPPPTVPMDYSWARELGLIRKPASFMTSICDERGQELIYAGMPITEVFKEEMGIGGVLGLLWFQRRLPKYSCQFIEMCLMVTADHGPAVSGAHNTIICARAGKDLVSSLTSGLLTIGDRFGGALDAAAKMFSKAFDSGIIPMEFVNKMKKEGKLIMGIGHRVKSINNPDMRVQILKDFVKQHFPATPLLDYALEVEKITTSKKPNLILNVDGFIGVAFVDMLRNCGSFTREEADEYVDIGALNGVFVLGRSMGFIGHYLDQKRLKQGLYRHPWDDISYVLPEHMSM
# ATP-citrate synthase [5] = biological target: T2, ATP-citrate synthase; assay: Competitive inhibition of rat liver ACLY using citrate as substrate by spectrophotometric analysis
# [6] = Inhibition of rat liver ACC
# Fatty acid synthase [7] = biological target: T3, Fatty acid synthase (Gallus gallus, UniProt P12276); assay: Inhibition of chicken liver FASN after 3 hrs
# T3 sequence (P12276 whole entry): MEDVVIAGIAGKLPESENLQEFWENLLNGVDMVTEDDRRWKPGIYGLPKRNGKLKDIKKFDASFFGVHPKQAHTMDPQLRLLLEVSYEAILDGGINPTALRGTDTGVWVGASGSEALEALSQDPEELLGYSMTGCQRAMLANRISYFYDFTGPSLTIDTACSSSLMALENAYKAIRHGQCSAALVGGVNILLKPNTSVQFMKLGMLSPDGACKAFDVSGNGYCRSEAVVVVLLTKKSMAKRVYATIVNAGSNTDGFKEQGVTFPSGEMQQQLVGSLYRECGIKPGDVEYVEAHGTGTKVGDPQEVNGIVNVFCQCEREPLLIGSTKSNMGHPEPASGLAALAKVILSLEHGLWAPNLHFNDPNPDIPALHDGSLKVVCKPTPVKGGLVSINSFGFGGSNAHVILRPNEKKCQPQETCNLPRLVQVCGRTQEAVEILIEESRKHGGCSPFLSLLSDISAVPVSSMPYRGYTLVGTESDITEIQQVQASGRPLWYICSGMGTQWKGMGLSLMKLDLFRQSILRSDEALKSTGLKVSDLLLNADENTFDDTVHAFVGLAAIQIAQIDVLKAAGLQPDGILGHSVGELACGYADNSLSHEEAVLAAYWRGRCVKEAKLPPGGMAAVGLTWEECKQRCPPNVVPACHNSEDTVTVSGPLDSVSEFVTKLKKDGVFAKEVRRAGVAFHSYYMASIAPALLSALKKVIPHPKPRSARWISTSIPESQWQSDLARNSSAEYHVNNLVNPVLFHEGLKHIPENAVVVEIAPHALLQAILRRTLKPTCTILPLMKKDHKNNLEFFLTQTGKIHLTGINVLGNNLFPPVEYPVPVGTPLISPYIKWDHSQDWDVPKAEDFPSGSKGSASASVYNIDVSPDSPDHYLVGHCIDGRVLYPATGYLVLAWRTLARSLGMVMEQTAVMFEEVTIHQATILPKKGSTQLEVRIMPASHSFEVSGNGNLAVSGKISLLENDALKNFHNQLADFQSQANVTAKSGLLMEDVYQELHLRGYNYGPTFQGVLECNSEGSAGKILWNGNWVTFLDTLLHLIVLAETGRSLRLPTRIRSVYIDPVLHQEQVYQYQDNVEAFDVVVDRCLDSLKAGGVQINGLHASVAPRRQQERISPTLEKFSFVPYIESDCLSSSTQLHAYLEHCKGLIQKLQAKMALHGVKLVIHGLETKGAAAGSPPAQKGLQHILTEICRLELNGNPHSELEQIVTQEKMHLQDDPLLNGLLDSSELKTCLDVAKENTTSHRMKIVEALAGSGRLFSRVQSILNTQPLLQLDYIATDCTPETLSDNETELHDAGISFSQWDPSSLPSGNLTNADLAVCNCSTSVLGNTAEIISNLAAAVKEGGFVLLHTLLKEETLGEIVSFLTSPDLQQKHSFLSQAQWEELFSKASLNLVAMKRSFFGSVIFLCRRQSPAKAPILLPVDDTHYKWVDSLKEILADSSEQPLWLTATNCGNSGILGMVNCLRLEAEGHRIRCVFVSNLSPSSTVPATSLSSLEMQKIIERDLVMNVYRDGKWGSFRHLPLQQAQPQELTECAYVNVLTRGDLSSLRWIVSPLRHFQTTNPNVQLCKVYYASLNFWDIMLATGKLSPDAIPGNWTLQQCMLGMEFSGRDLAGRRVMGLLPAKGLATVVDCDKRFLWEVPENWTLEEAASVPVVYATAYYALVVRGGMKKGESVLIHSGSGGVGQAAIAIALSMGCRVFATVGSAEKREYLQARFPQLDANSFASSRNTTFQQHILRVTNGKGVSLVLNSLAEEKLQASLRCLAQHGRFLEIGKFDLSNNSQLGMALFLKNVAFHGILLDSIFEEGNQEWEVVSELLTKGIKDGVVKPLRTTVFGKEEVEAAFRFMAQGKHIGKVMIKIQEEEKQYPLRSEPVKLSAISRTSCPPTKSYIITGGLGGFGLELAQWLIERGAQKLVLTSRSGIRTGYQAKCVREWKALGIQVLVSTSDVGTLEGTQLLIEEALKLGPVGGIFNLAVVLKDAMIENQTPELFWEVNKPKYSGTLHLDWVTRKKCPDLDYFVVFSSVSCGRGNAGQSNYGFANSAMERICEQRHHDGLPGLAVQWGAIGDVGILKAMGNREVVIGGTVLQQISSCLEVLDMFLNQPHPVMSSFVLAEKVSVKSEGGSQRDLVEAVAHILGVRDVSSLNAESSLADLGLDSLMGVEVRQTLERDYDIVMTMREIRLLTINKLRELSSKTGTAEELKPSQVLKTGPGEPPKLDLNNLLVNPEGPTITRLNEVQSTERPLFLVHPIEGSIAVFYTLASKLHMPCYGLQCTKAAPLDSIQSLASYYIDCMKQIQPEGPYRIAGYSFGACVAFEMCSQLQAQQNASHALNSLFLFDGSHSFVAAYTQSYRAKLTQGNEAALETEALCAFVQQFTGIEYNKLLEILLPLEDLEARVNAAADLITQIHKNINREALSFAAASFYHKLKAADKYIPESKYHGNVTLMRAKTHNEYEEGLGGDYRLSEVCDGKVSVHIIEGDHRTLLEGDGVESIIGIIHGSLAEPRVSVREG
# Fatty acid synthase [8] = biological target: T3, Fatty acid synthase; assay: Inhibition of chicken liver FASN ketoreductase activity
# [9] = Inhibition of duck liver FASN; set-up: species or system Anas platyrhynchos
# BGC-823 = assay: Cytotoxicity against human BGC823 cells; assay type: functional, cell-based
# ATP-citrate synthase [10] = biological target: T2, ATP-citrate synthase; assay: Competitive inhibition of rat liver ACLY using ATP as substrate by spectrophotometric analysis
# Fatty acid synthase [11] = biological target: T1, Fatty acid synthase; assay: Inhibition of FASN in human HepG2 cells; assay type: cell-based
# [12] = Inhibition of Escherichia coli FabB
# Fatty acid synthase [13] = biological target: Fatty acid synthase (Rattus norvegicus, UniProt P12785); assay: Inhibition of FASN in rat liver
# T1 sequence (P49327 whole entry): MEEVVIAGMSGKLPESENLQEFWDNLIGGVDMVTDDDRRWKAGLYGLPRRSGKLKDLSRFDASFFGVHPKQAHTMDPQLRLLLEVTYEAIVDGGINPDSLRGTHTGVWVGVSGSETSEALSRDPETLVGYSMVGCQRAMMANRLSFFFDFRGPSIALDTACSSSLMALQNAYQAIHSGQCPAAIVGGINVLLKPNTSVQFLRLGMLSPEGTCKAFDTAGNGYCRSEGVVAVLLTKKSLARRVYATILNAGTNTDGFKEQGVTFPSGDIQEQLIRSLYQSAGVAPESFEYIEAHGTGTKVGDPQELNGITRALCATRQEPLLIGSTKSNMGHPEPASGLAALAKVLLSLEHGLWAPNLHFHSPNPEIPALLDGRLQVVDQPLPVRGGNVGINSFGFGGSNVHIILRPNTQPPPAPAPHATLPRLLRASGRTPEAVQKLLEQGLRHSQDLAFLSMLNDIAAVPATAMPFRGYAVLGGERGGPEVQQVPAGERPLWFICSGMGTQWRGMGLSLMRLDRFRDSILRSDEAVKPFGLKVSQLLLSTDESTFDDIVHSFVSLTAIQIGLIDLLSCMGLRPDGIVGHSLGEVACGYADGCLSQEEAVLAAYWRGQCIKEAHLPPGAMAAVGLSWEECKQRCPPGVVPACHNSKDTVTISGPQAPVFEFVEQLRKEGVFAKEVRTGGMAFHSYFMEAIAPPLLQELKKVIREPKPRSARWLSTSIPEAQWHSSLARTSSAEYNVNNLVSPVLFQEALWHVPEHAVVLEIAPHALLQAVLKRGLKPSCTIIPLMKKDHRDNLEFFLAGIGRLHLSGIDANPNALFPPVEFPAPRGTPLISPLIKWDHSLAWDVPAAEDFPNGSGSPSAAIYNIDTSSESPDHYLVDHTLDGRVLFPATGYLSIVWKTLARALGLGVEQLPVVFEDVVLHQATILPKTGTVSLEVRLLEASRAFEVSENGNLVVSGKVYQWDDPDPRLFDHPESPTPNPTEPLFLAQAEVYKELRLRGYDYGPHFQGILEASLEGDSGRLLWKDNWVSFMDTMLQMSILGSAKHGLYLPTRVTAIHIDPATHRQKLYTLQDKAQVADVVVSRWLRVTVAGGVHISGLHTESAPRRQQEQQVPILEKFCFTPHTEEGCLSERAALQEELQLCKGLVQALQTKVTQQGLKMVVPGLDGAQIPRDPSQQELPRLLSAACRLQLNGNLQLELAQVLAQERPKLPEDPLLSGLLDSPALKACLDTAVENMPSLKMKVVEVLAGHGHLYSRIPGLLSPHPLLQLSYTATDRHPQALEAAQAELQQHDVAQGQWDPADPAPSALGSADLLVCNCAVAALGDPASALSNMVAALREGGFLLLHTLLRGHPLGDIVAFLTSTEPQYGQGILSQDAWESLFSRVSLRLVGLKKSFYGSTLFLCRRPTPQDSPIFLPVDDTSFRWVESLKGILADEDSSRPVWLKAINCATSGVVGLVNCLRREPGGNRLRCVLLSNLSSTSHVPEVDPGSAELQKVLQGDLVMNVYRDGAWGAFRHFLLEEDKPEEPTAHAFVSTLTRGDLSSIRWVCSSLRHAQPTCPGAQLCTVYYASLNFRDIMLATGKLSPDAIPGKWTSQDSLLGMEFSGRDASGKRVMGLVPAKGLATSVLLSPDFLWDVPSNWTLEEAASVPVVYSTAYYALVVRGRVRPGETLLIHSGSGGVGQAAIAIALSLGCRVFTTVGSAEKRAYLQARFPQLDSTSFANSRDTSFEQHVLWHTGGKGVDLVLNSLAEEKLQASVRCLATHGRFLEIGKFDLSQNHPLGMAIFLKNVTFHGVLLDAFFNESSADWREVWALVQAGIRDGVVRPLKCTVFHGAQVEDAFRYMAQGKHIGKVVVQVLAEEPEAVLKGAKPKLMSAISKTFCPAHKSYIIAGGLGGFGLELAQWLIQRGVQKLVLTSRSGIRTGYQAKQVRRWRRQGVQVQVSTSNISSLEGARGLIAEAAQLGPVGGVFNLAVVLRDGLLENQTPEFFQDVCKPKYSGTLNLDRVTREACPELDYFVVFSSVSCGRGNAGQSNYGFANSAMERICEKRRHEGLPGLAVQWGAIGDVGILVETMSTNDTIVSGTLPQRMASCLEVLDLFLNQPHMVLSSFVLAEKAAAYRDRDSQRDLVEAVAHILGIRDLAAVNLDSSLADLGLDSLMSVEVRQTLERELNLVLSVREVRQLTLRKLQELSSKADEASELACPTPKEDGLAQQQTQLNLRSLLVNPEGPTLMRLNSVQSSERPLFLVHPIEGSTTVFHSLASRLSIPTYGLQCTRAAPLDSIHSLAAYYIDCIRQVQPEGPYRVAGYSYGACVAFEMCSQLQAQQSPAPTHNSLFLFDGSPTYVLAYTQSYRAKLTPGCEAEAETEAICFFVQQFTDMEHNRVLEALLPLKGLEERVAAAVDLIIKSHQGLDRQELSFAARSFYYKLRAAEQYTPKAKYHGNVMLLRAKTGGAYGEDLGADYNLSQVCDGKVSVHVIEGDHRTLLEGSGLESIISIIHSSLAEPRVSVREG
structure (smiles),measurement,setting,value
CCCCC/C=C\C=C\CCCCCCCCC(=O)O,IC50,Fatty acid synthase [1],100 µM
Cc1ccnc(NS(=O)(=O)c2ccc(NC(=O)Nc3ccc(S(=O)(=O)Nc4nccc(C)n4)cc3)cc2)n1,IC50,Fatty acid synthase [2],0.0158 µM
CC(C)Oc1ccc(C2=NC(CSc3nc4ncccc4o3)CO2)cc1 (configuration not stated),IC50,Acetyl-CoA carboxylase 2,2.8 µM
same,IC50,Acetyl-CoA carboxylase 1,> 100 µM
O=C1O[C@@H](CCc2ccccc2)[C@H]1Cc1ccccc1,Ki,Fatty acid synthase [3],2.5 µM
CC(C)(CCCCCCCCCCC(C)(C)CC(=O)O)CC(=O)O,Ki,ATP-citrate synthase [4],3 µM
same,Ki,ATP-citrate synthase [5],16 µM
same,Ki,[6],70 µM
O=C(O[C@@H]1Cc2c(O)cc(O)cc2O[C@@H]1c1ccc(O)c(O)c1)c1cc(O)c(O)c(O)c1 [EPICATECHIN GALLATE],IC50,Fatty acid synthase [7],42 µM
same,IC50,Fatty acid synthase [8],68 µM
O=C(O[C@H]1O[C@@H]2COc3c(c4cc(O)c(O)c(O)c4c4c(O)c(O)c(O)cc34)O[C@H]2[C@H](OC(=O)c2cc(O)c(O)c(O)c2)[C@H]1OC(=O)c1cc(O)c(O)c(O)c1)c1cc(O)c(O)c(Oc2c(C(=O)O[C@@H]3O[C@@H]4COC(=O)c5cc(O)c(O)c(O)c5-c5c(cc(O)c(O)c5O)C(=O)O[C@H]4[C@@H]4OC(=O)c5cc(O)c(O)c(O)c5-c5c(cc(O)c(O)c5O)C(=O)O[C@@H]34)cc(O)c(O)c2O)c1 [GEMIN A],IC50,[9],0.21 µM
same,IC50,BGC-823,40.4 µM
C[C@@H]1C[C@H]2O[C@@H]2/C=C\C=C\C(=O)Cc2c(Cl)c(O)cc(O)c2C(=O)O1 [RADICICOL],Ki,ATP-citrate synthase [10],7 µM
same,Ki,ATP-citrate synthase [5],13 µM
C=C/C(C)=C/[C@@]1(C)SC(=O)C(C)=C1O [THIOLACTOMYCIN],IC50,Fatty acid synthase [11],> 380 µM
same,IC50,[12],1.9 µM
same,IC50,Fatty acid synthase [13],> 951 µM
